This is an account of results in US8084457B2, “Pharmaceutically active 4,6-disubstituted aminopyrimidine derivatives as modulators of protein kinases” (Lead Discovery Center GmbH, priority 2003, dated 2011).

Test [1] deals with T1, CDK9/Cyclin T1 (Homo sapiens, UniProt P50750).
T1 construct: made in house; host or cells: HEK293 cells, recombinant adenovirus
Nature of the test: Kinase assay using CDK9/Cyclin T1. It is filed as biochemical. The settings on record: read-out: CDK9 (activity range). An excerpt: Cloning of CDK9 and Cyclin T1:
Both cDNA fragments were cloned by PCR into pDONR201 vectors using the gateway recombination system (Invitrogen) according to the manufacturer's recommendations. The fragments were subcloned into a gateway-adapted shuttle vector (pPM7) for production of recombinant adenovirus. All plasmids were verified by restriction digests and sequencing analysis.
Expression and Purification of CDK9/Cyclin T1 Proteins:
Expression and purification was in principle performed as described by Cotten et al. (M. Cotten et al., Nucleic acids research, 2003, 31(28), 128).
Kinase Assay Using CDK9/Cyclin T1:
Kinase assays were performed in principle as described by Cotten et al. (M. Cotten et al., Nucleic acids research, 2003, 31(28), 128).

The target in test [2] is T2, CDK2/CyclinA (Homo sapiens, UniProt P24941).
T2 construct: purchased Proqinase
Nature of the test: Kinase assay determining CDK2/CyclinA activity. In kind it is biochemical. The settings on record: read-out: CDK2 (activity range). How it is done: Kinase Assays Determining CDK2/CyclinA and CDK5/p35 Activity:
Kinase assays were performed as described by the manufacturers recommendations (Proqinase for CDK2/CyclinA and Upsate for CDK5/p35).

T1 sequence (P50750 whole entry): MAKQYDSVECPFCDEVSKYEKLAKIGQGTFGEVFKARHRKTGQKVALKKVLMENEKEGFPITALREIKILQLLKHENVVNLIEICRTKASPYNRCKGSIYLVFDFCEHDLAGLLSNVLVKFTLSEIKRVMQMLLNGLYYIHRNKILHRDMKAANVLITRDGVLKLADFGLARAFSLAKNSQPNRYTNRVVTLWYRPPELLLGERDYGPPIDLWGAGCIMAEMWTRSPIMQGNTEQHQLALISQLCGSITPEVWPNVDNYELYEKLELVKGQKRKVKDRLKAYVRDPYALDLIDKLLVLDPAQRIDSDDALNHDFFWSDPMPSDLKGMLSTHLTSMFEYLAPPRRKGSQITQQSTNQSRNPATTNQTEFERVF
T1 sequence (O60563 whole entry partner): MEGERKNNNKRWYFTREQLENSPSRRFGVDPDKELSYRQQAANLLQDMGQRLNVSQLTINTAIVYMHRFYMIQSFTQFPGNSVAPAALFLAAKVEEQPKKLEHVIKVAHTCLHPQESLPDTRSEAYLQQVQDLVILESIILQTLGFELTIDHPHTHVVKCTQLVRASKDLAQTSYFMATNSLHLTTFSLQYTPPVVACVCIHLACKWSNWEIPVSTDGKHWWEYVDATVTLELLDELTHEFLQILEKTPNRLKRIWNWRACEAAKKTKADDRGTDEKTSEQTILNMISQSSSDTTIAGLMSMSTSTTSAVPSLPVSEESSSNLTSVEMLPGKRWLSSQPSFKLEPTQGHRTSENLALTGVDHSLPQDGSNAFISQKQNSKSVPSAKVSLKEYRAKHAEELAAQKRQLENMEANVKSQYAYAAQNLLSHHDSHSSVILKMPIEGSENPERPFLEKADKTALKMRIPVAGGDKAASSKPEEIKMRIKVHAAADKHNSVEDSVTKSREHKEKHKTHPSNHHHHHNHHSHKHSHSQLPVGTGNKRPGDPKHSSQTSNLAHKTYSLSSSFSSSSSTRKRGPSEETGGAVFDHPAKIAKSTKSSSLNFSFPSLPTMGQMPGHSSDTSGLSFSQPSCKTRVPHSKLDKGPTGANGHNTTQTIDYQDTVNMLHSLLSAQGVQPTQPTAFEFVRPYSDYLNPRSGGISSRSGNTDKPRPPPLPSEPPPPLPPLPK

Take `O=C(Nc1ccc(Nc2cc(-c3ccccc3Cl)ncn2)cc1)[C@@H]1CCCCN1` [(192)]: the results for the IC50 in test [1] and in test [2] were 1 to 1000 nM and 10000 to 250000 nM, respectively.

With `COC(=O)/C=C/c1cccc(-c2cc(Nc3ccc(C)c(NS(C)(=O)=O)c3)ncn2)c1` [(182)], the IC50 in test [1] and in test [2] was 1000 to 10000 nM throughout.

Take `COc1ccc(-c2cc(NCCc3ccncc3)ncn2)cc1` [(92)]: the IC50 in test [1] and in test [2] was 10000 to 250000 nM each time.

For `COc1ccccc1-c1cc(Nc2ccc(NC(=O)C(C)(C)C)cc2C)ncn1` [(119)], the IC50 in test [1] and in test [2] was 10000 to 250000 nM in each case.

As to `COc1ncccc1-c1cc(Nc2ccc(C)c(NS(C)(=O)=O)c2)ncn1` [(176)], the results for the IC50 in test [1] and in test [2] were 1 to 1000 nM and 1000 to 10000 nM, respectively.

For the compound `COc1ccccc1-c1cc(Nc2ccc(C(=O)N[C@@H]3CCCC[C@H]3O)cc2)ncn1` (racemic) [(135)], the IC50 in test [1] is 1 to 1000 nM; in test [2] it was 1000 to 10000 nM.

On to `COc1ccccc1-c1cc(Nc2ccc(NC(=O)c3cn(C)cn3)cc2)ncn1` [(70)], for which the IC50 in test [1] fell in the range of 1 to 1000 nM; in test [2] it was 1000 to 10000 nM.

For `COc1ccccc1-c1cc(Nc2ccc(NC(=O)C3CCCCC3)cc2)ncn1` [(41)], the values for the IC50 in test [1] and in test [2] were 1000 to 10000 nM and 10000 to 250000 nM, respectively.

Consider `CCCS(=O)(=O)Nc1ccc(Nc2cc(-c3ccccc3OC)ncn2)cc1` [(154)], for which the IC50 in test [1] and in test [2] was 1 to 1000 nM throughout.

Turning to `COc1ccccc1-c1cc(Nc2ccc(NC(=O)[C@@H]3CCN3)cc2)ncn1` [(90)], the IC50 in test [1] is 1 to 1000 nM; in test [2], 1000 to 10000 nM.

Regarding `COc1ccccc1-c1cc(Nc2ccc(NC(=O)c3ccc(N)cc3)cc2)nc(N)n1` [(97)], the IC50 in test [1] lay within 1000 to 10000 nM; in test [2], 10000 to 250000 nM.

As to `COc1ccccc1-c1cc(Nc2ccc(NC(=O)c3ccc4c(c3)OCO4)cc2)ncn1` [(130)], the IC50 in test [1] lay within 1 to 1000 nM; in test [2] it was 1000 to 10000 nM.

`CC(C)Oc1ccccc1-c1cc(Nc2ccc(NC(=O)c3ccc(N)cc3)cc2)ncn1` [(58)]: the IC50 in test [1] and in test [2] was 1 to 1000 nM each time.

As for `Nc1ccc(C(=O)Nc2ccc(Nc3cc(-c4ccccc4O)ncn3)cc2)cc1` [(151)], the IC50 in test [1] and in test [2] was 10000 to 250000 nM each time.

On to `Cc1ccc(Nc2cc(-c3cccc(CO)c3)ncn2)cc1NS(C)(=O)=O` [(183)], for which the IC50 in test [1] and in test [2] was 1000 to 10000 nM each time.

For `Nc1cccc(-c2cc(Nc3cccc(S(N)(=O)=O)c3)ncn2)c1` [(214)], the IC50 in test [1] was in the range of 1 to 1000 nM; in test [2] it was 1000 to 10000 nM.

`Nc1ccc(C(=O)Nc2ccc(Nc3cc(NCC4CCCCC4)ncn3)cc2)cc1` [(43)]: the IC50 fell in the range of 1000 to 10000 nM in test [1] and 10000 to 250000 nM in test [2].

For `Nc1cccc(-c2cc(Nc3ccc(S(N)(=O)=O)cc3)ncn2)c1` [(117)], the IC50 was in the range of 1000 to 10000 nM in test [1] and 1 to 1000 nM in test [2].

For the compound `Nc1ccc(C(=O)Nc2ccc(Nc3cc(-c4cccc(N)c4)ncn3)cc2)cc1` [(21)], the IC50 in test [1] and in test [2] was 1000 to 10000 nM throughout.

Take `COc1ccccc1-c1cc(Nc2ccc(NC(=O)C34CC5CC(CC(C5)C3)C4)cc2)ncn1` [(61)]: the IC50 is 1000 to 10000 nM in test [1] and 10000 to 250000 nM in test [2].

With `Nc1ccc(C(=O)Nc2ccc(Nc3cc(-c4ccccc4OCc4ccccc4)ncn3)cc2)cc1` [(4)], the values for the IC50 in test [1] and in test [2] were 1 to 1000 nM and 1000 to 10000 nM, respectively.

As for `COc1ccccc1-c1cc(Nc2ccc(C(=O)Nc3ccccc3)cc2)ncn1` [(52)], the IC50 in test [1] is 1 to 1000 nM; in test [2] it was 10000 to 250000 nM.

As to `Cc1ccc(Nc2cc(-c3cccc(C#N)c3)ncn2)cc1NS(C)(=O)=O` [(163)], the IC50 in test [1] and in test [2] was 1000 to 10000 nM in each case.

With `COc1ccccc1-c1cc(Nc2cccc(C(N)=O)c2)ncn1` [(115)], the IC50 in test [1] and in test [2] was 1 to 1000 nM each time.

`Cc1ccc(Nc2cc(-c3ccccc3O)ncn2)cc1NS(C)(=O)=O` [(181)]: the IC50 in test [1] and in test [2] was 1 to 1000 nM throughout.

On to `COc1cccc(-c2cc(Nc3ccc(NC(=O)c4ccc(N)cc4)cc3)ncn2)c1OC` [(56)], for which the IC50 in test [1] and in test [2] was 1000 to 10000 nM each time.

As to `COc1ccccc1-c1cc(Nc2ccc(-c3nc4ccccc4o3)cc2)ncn1` [(62)], the IC50 in test [1] and in test [2] was 10000 to 250000 nM in each case.

With `COc1ccccc1-c1cc(Nc2ccc(NC(=O)[C@@H]3CCCCN3C(=O)OC(C)(C)C)cc2)ncn1` [(29)], the IC50 in test [1] lay in the range of 1 to 1000 nM; in test [2], 1000 to 10000 nM.

Turning to `COc1ccccc1-c1cc(Nc2ccc(NC(=O)c3ccc4ccccc4n3)cc2)ncn1` [(98)], the IC50 in test [1] lay in the range of 1 to 1000 nM; in test [2], 10000 to 250000 nM.

With `CC(C)Oc1ccccc1-c1cc(NCCc2ccncc2)ncn1` [(99)], the IC50 in test [1] is 1 to 1000 nM; in test [2], 1000 to 10000 nM.

As for `CC(C)(C)C(=O)Nc1ccc(Nc2cc(-c3ccccc3OCc3ccccc3)ncn2)cc1` [(85)], the IC50 in test [1] was in the range of 1 to 1000 nM; in test [2] it was 1000 to 10000 nM.

Take `Nc1ccc(C(=O)Nc2ccc(Nc3cc(-c4ccncc4)ncn3)cc2)cc1` [(67)]: the IC50 in test [1] and in test [2] was 10000 to 250000 nM each time.

As to `COc1ccccc1-c1cc(Nc2ccc(NC(=O)NCc3ccc(C)cc3)cc2)ncn1` [(112)], the IC50 in test [1] lay in the range of 1 to 1000 nM; in test [2] it was 10000 to 250000 nM.

Take `COc1ccccc1-c1cc(Nc2ccc(NC(=O)c3ccc(N4CCN(C)CC4)cc3)cc2)ncn1` [(49)]: the figures for the IC50 in test [1] and in test [2] were 1 to 1000 nM and 1000 to 10000 nM, respectively.

In the case of `COc1ccccc1-c1cc(Nc2ccc(C(=O)Nc3ccc(N4CCOCC4)cc3)cc2)ncn1` [(125)], the IC50 in test [1] was 1 to 1000 nM; in test [2] it was 1000 to 10000 nM.

As to `CCCS(=O)(=O)Nc1cc(Nc2cc(-c3cccc(N)c3)ncn2)ccc1C` [(116)], the IC50 in test [1] and in test [2] was 1 to 1000 nM throughout.

For `COc1ccccc1-c1cc(Nc2ccc(NC(=O)c3ccc(C(C)(C)C)cc3)cc2)ncn1` [(45)], the IC50 in test [1] lay within 1000 to 10000 nM; in test [2] it was 10000 to 250000 nM.

As to `CCCCNS(=O)(=O)c1cccc(Nc2cc(-c3ccccc3OC)ncn2)c1` [(184)], the IC50 in test [1] is 1 to 1000 nM; in test [2] it was 1000 to 10000 nM.

Consider `COc1ccccc1-c1cc(Nc2ccc(NC(=O)CC3CCCCN3C(=O)OC(C)(C)C)cc2)ncn1` (centres unmarked) [(48)], for which the IC50 in test [1] and in test [2] was 1000 to 10000 nM each time.

Turning to `COc1ccccc1-c1cc(Nc2ccc(C(=O)Nc3ccc(O)cc3)cc2)ncn1` [(136)], the IC50 in test [1] was in the range of 1 to 1000 nM; in test [2] it was 1000 to 10000 nM.

In the case of `COc1ccc(-c2cc(Nc3cccc(S(N)(=O)=O)c3)ncn2)cc1` [Compound 215], the IC50 in test [1] and in test [2] was 1 to 1000 nM each time.

Turning to `COc1cccc(-c2cc(Nc3ccc(NS(=O)(=O)c4ccc(C)cc4)cc3)ncn2)c1` [(2)], the IC50 in test [1] and in test [2] was 10000 to 250000 nM each time.

Take `Oc1ccccc1-c1cc(NCCc2ccncc2)ncn1` [(94)]: the IC50 is 1000 to 10000 nM in test [1] and 10000 to 250000 nM in test [2].

On to `Nc1cccc(-c2cc(NCCc3ccncc3)ncn2)c1` [(13)], for which the IC50 in test [1] and in test [2] was 1000 to 10000 nM each time.

As for `COc1ccccc1-c1cc(Nc2ccc(NC(=N)N)cc2)ncn1` [(53)], the IC50 in test [1] and in test [2] was 1000 to 10000 nM each time.

Regarding `CS(=O)(=O)Nc1cc(Nc2cc(-c3cccc(N)c3)ncn2)ccc1OCc1ccccc1` [(120)], the IC50 in test [1] and in test [2] was 1000 to 10000 nM each time.

With `COc1cccc(OC)c1-c1cc(Nc2ccc(NC(=O)c3ccc(N)cc3)cc2)ncn1` [(51)], the figures for the IC50 in test [1] and in test [2] were 1000 to 10000 nM and 10000 to 250000 nM, respectively.

As to `COc1ccc(-c2cc(Nc3ccc(C(=O)N[C@@H]4CCCC[C@H]4N)cc3)ncn2)cc1` (racemic) [(161)], the IC50 in test [1] fell in the range of 1 to 1000 nM; in test [2], 1000 to 10000 nM.

With `COc1ccccc1-c1cc(Nc2ccc(-c3nc4ccccc4[nH]3)cc2)ncn1` [(63)], the IC50 in test [1] and in test [2] was 1 to 1000 nM throughout.

Consider `COc1ccc(OC)c(-c2cc(Nc3ccc(NC(=O)c4ccc(N)cc4)cc3)ncn2)c1` [(57)], for which the IC50 in test [1] and in test [2] was 10000 to 250000 nM each time.

For the compound `CS(=O)(=O)Nc1cccc(Nc2cc(-c3cccc(N)c3)ncn2)c1` [(121)], the IC50 lay in the range of 1 to 1000 nM in test [1] and 1000 to 10000 nM in test [2].

Consider `Nc1ccc(C(=O)Nc2ccc(Nc3cc(-c4ccc(O)cc4)ncn3)cc2)cc1` [(16)], for which the IC50 in test [1] and in test [2] was 1000 to 10000 nM in each case.

As to `COc1ccccc1-c1cc(Nc2ccc(N)cc2C)ncn1` [(123)], the IC50 in test [1] and in test [2] was 1000 to 10000 nM in each case.

Turning to `Cc1ccc(Nc2cc(-c3cccc(N)c3)ncn2)cc1NS(=O)(=O)c1ccccc1` [(109)], the IC50 lay in the range of 1 to 1000 nM in test [1] and 1000 to 10000 nM in test [2].

`CCCN(c1ccc(Nc2cc(-c3ccccc3OC)ncn2)cc1)S(=O)(=O)c1ccc(C)cc1` [(18)]: the IC50 in test [1] was in the range of 1000 to 10000 nM; in test [2] it was 10000 to 250000 nM.

For `COc1ccc(-c2cc(Nc3ccc(NC(=O)c4ccc(N)cc4)cc3)ncn2)c(OC)c1` [(31)], the IC50 in test [1] and in test [2] was 1 to 1000 nM each time.

For the compound `COc1ccccc1-c1cc(Nc2ccc(NC(=O)C3(NC(=O)OC(C)(C)C)CCCC3)cc2)ncn1` [(47)], the results for the IC50 in test [1] and in test [2] were 1 to 1000 nM and 10000 to 250000 nM, respectively.

Take `COc1ccccc1-c1cc(Nc2ccc(C)c(NS(C)(=O)=O)c2)ncn1` [(162)]: the IC50 in test [1] and in test [2] was 1 to 1000 nM throughout.
